In BigSolDB 2.1:

**Q.** For `CC(C)(Oc1ccc(CCNC(=O)c2ccc(Cl)cc2)cc1)C(=O)O`, which solubility (mole fraction) (in ethanol, 283.15 K) is on record?
**A.** Its solubility (mole fraction) is 0.00223.

**Q.** And the solubility (mole fraction) (in ethanol, 288.15 K)?
**A.** The solubility (mole fraction) was 0.00271.

**Q.** And the solubility (mole fraction) (in ethanol, 293.15 K)?
**A.** Its solubility (mole fraction) is 0.00332.

**Q.** And the solubility (mole fraction) (in ethanol, 298.15 K)?
**A.** Its solubility (mole fraction) is 0.00402.

**Q.** And the solubility (mole fraction) (in ethanol, 303.15 K)?
**A.** The solubility (mole fraction) was 0.00482.

**Q.** And the solubility (mole fraction) (in ethanol, 308.15 K)?
**A.** The solubility (mole fraction) was 0.00571.

**Q.** What about the solubility (mole fraction) (in ethanol, 313.15 K) of the same compound?
**A.** The solubility (mole fraction) was 0.00689.

**Q.** What about the solubility (mole fraction) (in ethanol, 318.15 K) of the same compound?
**A.** Its solubility (mole fraction) is 0.00815.

**Q.** And the solubility (mole fraction) (in ethanol, 323.15 K)?
**A.** The solubility (mole fraction) was 0.00977.

**Q.** What about the solubility (mole fraction) (in isopropanol, 283.15 K) of the same compound?
**A.** The solubility (mole fraction) was 0.00152.

**Q.** And the solubility (mole fraction) (in isopropanol, 288.15 K)?
**A.** The solubility (mole fraction) was 0.00189.

**Q.** What about the solubility (mole fraction) (in isopropanol, 293.15 K) of the same compound?
**A.** Its solubility (mole fraction) is 0.00237.

**Q.** What about the solubility (mole fraction) (in isopropanol, 298.15 K) of the same compound?
**A.** Its solubility (mole fraction) is 0.00307.

**Q.** What about the solubility (mole fraction) (in isopropanol, 303.15 K) of the same compound?
**A.** The solubility (mole fraction) was 0.00384.

**Q.** And the solubility (mole fraction) (in isopropanol, 308.15 K)?
**A.** The solubility (mole fraction) was 0.00476.

**Q.** And the solubility (mole fraction) (in isopropanol, 313.15 K)?
**A.** The solubility (mole fraction) was 0.00563.

**Q.** What about the solubility (mole fraction) (in isopropanol, 318.15 K) of the same compound?
**A.** The solubility (mole fraction) was 0.00689.

**Q.** And the solubility (mole fraction) (in isopropanol, 323.15 K)?
**A.** Its solubility (mole fraction) is 0.00832.

**Q.** What about the solubility (mole fraction) (in methanol, 283.15 K) of the same compound?
**A.** Its solubility (mole fraction) is 0.0019.

**Q.** And the solubility (mole fraction) (in methanol, 288.15 K)?
**A.** Its solubility (mole fraction) is 0.00228.

**Q.** What about the solubility (mole fraction) (in methanol, 293.15 K) of the same compound?
**A.** Its solubility (mole fraction) is 0.00283.

**Q.** And the solubility (mole fraction) (in methanol, 298.15 K)?
**A.** Its solubility (mole fraction) is 0.00343.

**Q.** And the solubility (mole fraction) (in methanol, 303.15 K)?
**A.** Its solubility (mole fraction) is 0.0043.

**Q.** And the solubility (mole fraction) (in methanol, 308.15 K)?
**A.** Its solubility (mole fraction) is 0.00526.

**Q.** And the solubility (mole fraction) (in methanol, 313.15 K)?
**A.** The solubility (mole fraction) was 0.00648.

**Q.** What about the solubility (mole fraction) (in methanol, 318.15 K) of the same compound?
**A.** Its solubility (mole fraction) is 0.00791.

**Q.** And the solubility (mole fraction) (in methanol, 323.15 K)?
**A.** Its solubility (mole fraction) is 0.00948.

**Q.** And the solubility (mole fraction) (in n-propanol, 283.15 K)?
**A.** The solubility (mole fraction) was 0.00246.

**Q.** And the solubility (mole fraction) (in n-propanol, 288.15 K)?
**A.** Its solubility (mole fraction) is 0.00297.

**Q.** What about the solubility (mole fraction) (in n-propanol, 293.15 K) of the same compound?
**A.** Its solubility (mole fraction) is 0.00361.

**Q.** What about the solubility (mole fraction) (in n-propanol, 298.15 K) of the same compound?
**A.** The solubility (mole fraction) was 0.00437.

**Q.** And the solubility (mole fraction) (in n-propanol, 303.15 K)?
**A.** Its solubility (mole fraction) is 0.00524.

**Q.** What about the solubility (mole fraction) (in n-propanol, 308.15 K) of the same compound?
**A.** The solubility (mole fraction) was 0.00631.

**Q.** And the solubility (mole fraction) (in n-propanol, 313.15 K)?
**A.** The solubility (mole fraction) was 0.00743.

**Q.** And the solubility (mole fraction) (in n-propanol, 318.15 K)?
**A.** Its solubility (mole fraction) is 0.0088.

**Q.** What about the solubility (mole fraction) (in n-propanol, 323.15 K) of the same compound?
**A.** Its solubility (mole fraction) is 0.0101.

**Q.** And the solubility (mole fraction) (in water, 283.15 K)?
**A.** Its solubility (mole fraction) is 1.23e-06.

**Q.** What about the solubility (mole fraction) (in water, 288.15 K) of the same compound?
**A.** Its solubility (mole fraction) is 1.58e-06.

**Q.** And the solubility (mole fraction) (in water, 293.15 K)?
**A.** The solubility (mole fraction) was 2.01e-06.

**Q.** What about the solubility (mole fraction) (in water, 298.15 K) of the same compound?
**A.** The solubility (mole fraction) was 2.56e-06.

**Q.** What about the solubility (mole fraction) (in water, 303.15 K) of the same compound?
**A.** The solubility (mole fraction) was 3.29e-06.

**Q.** What about the solubility (mole fraction) (in water, 308.15 K) of the same compound?
**A.** Its solubility (mole fraction) is 4.13e-06.

**Q.** What about the solubility (mole fraction) (in water, 313.15 K) of the same compound?
**A.** Its solubility (mole fraction) is 5.13e-06.

**Q.** And the solubility (mole fraction) (in water, 318.15 K)?
**A.** Its solubility (mole fraction) is 6.3e-06.

**Q.** And the solubility (mole fraction) (in water, 323.15 K)?
**A.** Its solubility (mole fraction) is 7.83e-06.
